ChEMBL document CHEMBL3822377, “Locking PDK1 in DFG-out conformation through 2-oxo-indole containing molecules: Another tools to fight glioblastoma” (Eur J Med Chem, 2016)

Columns and labels:
[1] = biological target: CDK9/cyclin T1 (Homo sapiens) (UniProt O60563+P50750); test: Inhibition of His-tagged full-length human recombinant CDK9/Cyclin T1 expressed in baculovirus system at 100 nM by adapta assay
[2] = biological target: Cyclin-dependent kinase 5/CDK5 activator 1 (Homo sapiens) (UniProt Q00535+Q15078); test: Inhibition of His-tagged full-length human CDK5/p35 expressed in baculovirus system at 100 nM by Z-lyte assay
Chain of Cyclin-dependent kinase 5/CDK5 activator 1 (Homo sapiens) (Q00535 whole entry): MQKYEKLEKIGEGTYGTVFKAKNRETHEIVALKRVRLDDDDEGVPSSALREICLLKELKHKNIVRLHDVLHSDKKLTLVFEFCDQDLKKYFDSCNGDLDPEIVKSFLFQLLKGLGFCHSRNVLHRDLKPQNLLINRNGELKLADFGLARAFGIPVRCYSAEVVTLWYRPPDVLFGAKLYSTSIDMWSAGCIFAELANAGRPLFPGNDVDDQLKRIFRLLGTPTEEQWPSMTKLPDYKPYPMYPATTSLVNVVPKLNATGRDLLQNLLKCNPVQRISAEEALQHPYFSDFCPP
Chain of Cyclin-dependent kinase 5/CDK5 activator 1 (Homo sapiens) (Q15078 99-307 partner limits assumed): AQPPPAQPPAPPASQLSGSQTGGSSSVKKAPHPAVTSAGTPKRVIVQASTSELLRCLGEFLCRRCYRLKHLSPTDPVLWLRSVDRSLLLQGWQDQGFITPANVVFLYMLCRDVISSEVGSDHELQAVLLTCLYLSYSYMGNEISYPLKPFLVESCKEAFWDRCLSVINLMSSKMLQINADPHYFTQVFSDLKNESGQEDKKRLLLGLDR

[3] = biological target: Dual specificity protein kinase CLK1 (Homo sapiens) (UniProt P49759); test: Inhibition of GST-tagged human CLK1 expressed in Escherichia coli at 100 nM by Z-lyte assay
Chain of Dual specificity protein kinase CLK1 (Homo sapiens) (P49759 whole entry, looked up): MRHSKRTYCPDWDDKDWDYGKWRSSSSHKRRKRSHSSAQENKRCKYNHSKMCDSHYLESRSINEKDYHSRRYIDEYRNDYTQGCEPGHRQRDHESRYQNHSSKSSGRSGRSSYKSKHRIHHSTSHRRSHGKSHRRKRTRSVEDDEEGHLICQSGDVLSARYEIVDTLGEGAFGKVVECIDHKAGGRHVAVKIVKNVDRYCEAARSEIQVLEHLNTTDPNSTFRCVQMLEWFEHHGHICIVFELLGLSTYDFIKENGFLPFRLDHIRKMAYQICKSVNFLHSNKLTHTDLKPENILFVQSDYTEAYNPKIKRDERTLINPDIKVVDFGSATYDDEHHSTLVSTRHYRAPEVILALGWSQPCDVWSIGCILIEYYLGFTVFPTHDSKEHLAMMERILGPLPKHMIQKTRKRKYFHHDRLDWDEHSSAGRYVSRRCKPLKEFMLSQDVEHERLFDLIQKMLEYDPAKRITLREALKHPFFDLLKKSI

[4] = biological target: T1, 3-phosphoinositide-dependent protein kinase 1 (Homo sapiens) (UniProt O15530); test: Inhibition of PDK1 in human U87MG cells assessed as reduction in AKT phosphorylation at Thr308 residue at 10 uM measured at 120 mins by ELISA relative to control; format: cell-based; conditions: U-87MG ATCC
T1 sequence (whole entry): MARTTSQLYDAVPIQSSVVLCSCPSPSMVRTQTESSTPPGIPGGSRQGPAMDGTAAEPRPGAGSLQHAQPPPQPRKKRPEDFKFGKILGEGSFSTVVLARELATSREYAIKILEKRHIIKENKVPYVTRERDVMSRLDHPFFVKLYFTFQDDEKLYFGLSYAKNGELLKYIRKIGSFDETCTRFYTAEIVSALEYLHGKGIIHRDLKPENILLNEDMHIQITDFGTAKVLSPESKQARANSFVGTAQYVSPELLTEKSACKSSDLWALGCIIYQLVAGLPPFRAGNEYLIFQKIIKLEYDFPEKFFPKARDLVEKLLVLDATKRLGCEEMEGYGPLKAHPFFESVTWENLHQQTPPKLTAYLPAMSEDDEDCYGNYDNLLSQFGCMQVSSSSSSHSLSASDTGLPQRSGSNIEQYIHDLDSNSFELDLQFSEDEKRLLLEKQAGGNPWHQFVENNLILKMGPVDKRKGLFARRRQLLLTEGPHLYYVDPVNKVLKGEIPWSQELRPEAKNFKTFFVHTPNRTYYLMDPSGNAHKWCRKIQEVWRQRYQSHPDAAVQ

[5] = biological target: PI3-kinase p110-alpha/p85-alpha (Homo sapiens) (UniProt P27986+P42336); test: Inhibition of His-tagged full-length human recombinant PIK3CA/PIK3R1 expressed in baculovirus system at 100 nM by adapta assay
[6] = biological target: Mitogen-activated protein kinase 1 (Homo sapiens) (UniProt P28482); test: Inhibition of GST-tagged full-length human MAPK1 expressed in Escherichia coli at 100 nM by Z-lyte assay
[7] = biological target: T1, 3-phosphoinositide-dependent protein kinase 1 (Homo sapiens); test: Inhibition of PDK1 in human GSC cells assessed as reduction in AKT phosphorylation at Thr308 residue at 10 uM by ELISA relative to control; format: cell-based; conditions: TDE = time-dependent effect
[8] = biological target: T1, 3-phosphoinositide-dependent protein kinase 1 (Homo sapiens); test: Inhibition of PDK1 (unknown origin) at 10 uM by FRET-based Z-lyte assay
[9] = Induction of apoptosis in human GSC cells assessed as dead cells by measuring phosphatidylserine externalisation at 10 uM after 7 days in presence of 7-amino-actinomysin by AnnexinV/FITC staining-based flow cytometry (reference value: 1.68%); format: functional
[10] = (§1) Antiproliferative activity against human GSC cells after 7 days by MTS assay; format: functional, cell-based; conditions: 168 h
[11] = system: GSC; test: as §1; format: functional, cell-based
[12] = biological target: PI3-kinase p110-delta/p85-alpha (Homo sapiens) (UniProt P27986+O00329); test: Inhibition of His-tagged full-length human PIK3CD/PIK3R1 expressed in baculovirus system at 100 nM by adapta assay
[13] = biological target: Protein kinase C zeta type (Homo sapiens) (UniProt Q05513); test: Inhibition of full-length recombinant human PRKCZ expressed in baculovirus system at 100 nM by Z-lyte assay
Chain of Protein kinase C zeta type (Homo sapiens) (Q05513 whole entry): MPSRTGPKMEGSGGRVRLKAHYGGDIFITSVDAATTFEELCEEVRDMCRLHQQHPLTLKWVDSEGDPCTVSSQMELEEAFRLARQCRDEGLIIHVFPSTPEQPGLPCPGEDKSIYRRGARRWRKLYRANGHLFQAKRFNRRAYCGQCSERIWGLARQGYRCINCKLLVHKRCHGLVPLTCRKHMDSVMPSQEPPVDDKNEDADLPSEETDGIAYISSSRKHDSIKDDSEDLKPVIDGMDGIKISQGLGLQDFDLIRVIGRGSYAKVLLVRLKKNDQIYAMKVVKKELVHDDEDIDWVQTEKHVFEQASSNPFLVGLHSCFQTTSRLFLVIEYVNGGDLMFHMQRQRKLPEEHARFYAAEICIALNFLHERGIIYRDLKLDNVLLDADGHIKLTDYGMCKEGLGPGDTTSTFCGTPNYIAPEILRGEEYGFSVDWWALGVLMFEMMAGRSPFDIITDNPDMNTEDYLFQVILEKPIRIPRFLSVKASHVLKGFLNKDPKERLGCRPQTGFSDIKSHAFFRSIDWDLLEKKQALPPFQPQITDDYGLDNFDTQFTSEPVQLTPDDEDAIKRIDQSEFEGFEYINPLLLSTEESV

[14] = system: U-87 MG; test: Induction of apoptosis in human U87MG cells assessed as dead cells by measuring phosphatidylserine externalisation at 10 uM after 72 hrs in presence of 7-amino-actinomysin by AnnexinV/FITC staining-based flow cytometry (reference value: 2.1%); format: functional, U-87MG ATCC
[15] = biological target: Glycogen synthase kinase-3 alpha (Homo sapiens) (UniProt P49840); test: Inhibition of GSK3 alpha (unknown origin) at 100 nM by Z-lyte assay
[16] = biological target: RAC-alpha serine/threonine-protein kinase (Homo sapiens) (UniProt P31749); test: Inhibition of His-tagged full-length human AKT1 expressed in baculovirus system at 100 nM by Z-lyte assay
Chain of RAC-alpha serine/threonine-protein kinase (Homo sapiens) (P31749 whole entry): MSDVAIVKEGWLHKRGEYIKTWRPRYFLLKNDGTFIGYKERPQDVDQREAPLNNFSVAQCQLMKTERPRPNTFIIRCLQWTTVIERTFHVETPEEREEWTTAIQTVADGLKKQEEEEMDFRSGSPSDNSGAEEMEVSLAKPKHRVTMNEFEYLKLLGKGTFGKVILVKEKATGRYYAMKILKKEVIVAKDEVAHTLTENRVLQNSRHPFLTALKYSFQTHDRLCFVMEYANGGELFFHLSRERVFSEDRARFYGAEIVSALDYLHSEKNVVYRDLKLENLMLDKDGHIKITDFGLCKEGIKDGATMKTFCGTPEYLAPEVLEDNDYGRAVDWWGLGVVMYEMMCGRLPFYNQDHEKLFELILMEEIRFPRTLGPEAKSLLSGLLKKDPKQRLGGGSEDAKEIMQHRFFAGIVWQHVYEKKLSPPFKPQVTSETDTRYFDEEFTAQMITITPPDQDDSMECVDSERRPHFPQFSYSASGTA

[17] = biological target: Tyrosine-protein kinase JAK1 (Homo sapiens) (UniProt P23458); test: Inhibition of cytosolic GST-tagged full-length recombinant human JAK1 expressed in baculovirus system at 100 nM by Z-lyte assay
Chain of Tyrosine-protein kinase JAK1 (Homo sapiens) (P23458 whole entry): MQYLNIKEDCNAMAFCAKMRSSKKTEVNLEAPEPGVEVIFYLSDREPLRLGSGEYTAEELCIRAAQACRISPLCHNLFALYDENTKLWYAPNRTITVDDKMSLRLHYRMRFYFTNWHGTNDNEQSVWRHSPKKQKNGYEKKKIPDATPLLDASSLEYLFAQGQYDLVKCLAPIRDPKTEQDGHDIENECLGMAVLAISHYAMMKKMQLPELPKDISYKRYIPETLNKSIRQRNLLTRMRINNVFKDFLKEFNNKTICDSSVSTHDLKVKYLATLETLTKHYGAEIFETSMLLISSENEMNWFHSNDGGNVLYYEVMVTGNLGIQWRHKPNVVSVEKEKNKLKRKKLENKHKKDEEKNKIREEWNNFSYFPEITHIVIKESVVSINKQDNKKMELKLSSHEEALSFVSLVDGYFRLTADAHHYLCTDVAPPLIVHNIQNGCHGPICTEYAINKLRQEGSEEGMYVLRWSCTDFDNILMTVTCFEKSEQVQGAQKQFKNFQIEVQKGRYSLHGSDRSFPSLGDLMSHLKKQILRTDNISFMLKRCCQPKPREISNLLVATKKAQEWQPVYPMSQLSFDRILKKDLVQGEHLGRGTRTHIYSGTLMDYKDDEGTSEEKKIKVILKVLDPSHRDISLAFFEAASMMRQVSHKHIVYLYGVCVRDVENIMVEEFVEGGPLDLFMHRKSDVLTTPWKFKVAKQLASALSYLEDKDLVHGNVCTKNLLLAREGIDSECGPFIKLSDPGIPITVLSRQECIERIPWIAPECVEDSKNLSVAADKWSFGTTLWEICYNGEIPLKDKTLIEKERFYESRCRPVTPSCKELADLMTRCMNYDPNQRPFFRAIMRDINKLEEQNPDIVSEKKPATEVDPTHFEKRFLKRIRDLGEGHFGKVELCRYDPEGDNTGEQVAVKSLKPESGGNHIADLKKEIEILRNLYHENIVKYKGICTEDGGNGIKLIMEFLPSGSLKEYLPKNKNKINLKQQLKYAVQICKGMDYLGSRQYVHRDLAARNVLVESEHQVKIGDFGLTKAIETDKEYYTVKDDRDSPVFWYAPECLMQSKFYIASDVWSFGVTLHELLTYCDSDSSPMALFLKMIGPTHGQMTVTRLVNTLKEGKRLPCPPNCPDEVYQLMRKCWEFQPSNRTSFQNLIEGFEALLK

[18] = biological target: CDK2/Cyclin A2 (Homo sapiens) (UniProt P24941+P20248); test: Inhibition of GST-tagged human CDK2/Cyclin A expressed in baculovirus system at 100 nM by Z-lyte assay
[19] = biological target: Tyrosine-protein kinase ITK/TSK (Homo sapiens) (UniProt Q08881); test: Inhibition of cytosolic GST-tagged full-length recombinant human ITK expressed in baculovirus system at 100 nM by Z-lyte assay
Chain of Tyrosine-protein kinase ITK/TSK (Homo sapiens) (Q08881 whole entry, canonical isoform): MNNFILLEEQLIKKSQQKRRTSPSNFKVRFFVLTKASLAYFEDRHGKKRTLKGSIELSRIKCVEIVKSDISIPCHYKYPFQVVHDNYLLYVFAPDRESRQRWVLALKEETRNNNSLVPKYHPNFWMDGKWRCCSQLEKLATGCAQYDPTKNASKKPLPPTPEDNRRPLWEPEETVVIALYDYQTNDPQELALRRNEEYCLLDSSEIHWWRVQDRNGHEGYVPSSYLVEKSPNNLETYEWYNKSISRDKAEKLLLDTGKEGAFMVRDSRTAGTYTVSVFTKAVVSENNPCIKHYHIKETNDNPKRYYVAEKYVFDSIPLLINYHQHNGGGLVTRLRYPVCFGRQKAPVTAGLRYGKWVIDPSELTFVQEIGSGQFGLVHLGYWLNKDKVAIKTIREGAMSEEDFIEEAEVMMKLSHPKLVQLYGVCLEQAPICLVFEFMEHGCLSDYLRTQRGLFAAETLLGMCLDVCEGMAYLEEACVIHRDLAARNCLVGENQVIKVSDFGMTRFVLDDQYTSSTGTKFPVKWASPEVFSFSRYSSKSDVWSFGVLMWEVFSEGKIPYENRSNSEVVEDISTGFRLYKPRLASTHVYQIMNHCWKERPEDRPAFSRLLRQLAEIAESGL

[20] = biological target: Casein kinase I isoform alpha (Homo sapiens) (UniProt P48729); test: Inhibition of GST-tagged human CSNK1A1 expressed in baculovirus system at 100 nM by Z-lyte assay
Chain of Casein kinase I isoform alpha (Homo sapiens) (P48729 2-337 limits assumed): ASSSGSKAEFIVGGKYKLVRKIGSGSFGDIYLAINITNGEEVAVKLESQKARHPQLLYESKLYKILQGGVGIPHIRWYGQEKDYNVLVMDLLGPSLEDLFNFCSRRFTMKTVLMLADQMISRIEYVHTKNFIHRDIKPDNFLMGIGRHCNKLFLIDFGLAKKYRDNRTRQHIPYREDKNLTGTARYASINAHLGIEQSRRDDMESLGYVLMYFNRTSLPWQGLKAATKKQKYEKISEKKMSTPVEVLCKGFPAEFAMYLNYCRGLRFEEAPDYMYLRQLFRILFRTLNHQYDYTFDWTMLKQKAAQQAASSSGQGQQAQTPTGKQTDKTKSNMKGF

[21] = biological target: Mitogen-activated protein kinase 8 (Homo sapiens) (UniProt P45983); test: Inhibition of His-tagged full-length human MAPK8 expressed in baculovirus system at 100 nM by Z-lyte assay
Chain of Mitogen-activated protein kinase 8 (Homo sapiens) (P45983 whole entry): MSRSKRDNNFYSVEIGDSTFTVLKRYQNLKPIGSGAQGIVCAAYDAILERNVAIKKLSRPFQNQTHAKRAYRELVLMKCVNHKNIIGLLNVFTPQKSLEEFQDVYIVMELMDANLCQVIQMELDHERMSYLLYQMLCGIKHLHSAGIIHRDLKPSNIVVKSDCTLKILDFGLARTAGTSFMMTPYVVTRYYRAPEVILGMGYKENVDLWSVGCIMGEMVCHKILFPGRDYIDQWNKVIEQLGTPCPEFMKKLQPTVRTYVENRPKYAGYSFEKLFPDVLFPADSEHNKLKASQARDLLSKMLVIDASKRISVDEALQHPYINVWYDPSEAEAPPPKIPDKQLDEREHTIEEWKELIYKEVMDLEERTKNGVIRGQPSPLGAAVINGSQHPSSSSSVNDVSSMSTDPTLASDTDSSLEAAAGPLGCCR

[22] = biological target: Mitogen-activated protein kinase 14 (Homo sapiens) (UniProt Q16539); test: Inhibition of GST-tagged full-length human MAPK14 (direct) expressed in Escherichia coli at 100 nM by Z-lyte assay
Chain of Mitogen-activated protein kinase 14 (Homo sapiens) (Q16539 whole entry): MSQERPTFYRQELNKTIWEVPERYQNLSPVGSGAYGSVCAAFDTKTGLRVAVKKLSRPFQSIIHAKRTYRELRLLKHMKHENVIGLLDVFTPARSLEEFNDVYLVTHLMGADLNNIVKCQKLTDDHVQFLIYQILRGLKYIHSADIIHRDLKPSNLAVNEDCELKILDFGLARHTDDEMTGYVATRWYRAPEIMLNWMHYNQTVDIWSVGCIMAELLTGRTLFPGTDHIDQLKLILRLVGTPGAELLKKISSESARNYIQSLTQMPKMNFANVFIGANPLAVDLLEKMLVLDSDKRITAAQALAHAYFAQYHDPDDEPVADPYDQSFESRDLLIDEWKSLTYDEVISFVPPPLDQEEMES

`O=C(CNC(=O)c1cccn(Cc2ccc(F)c(F)c2)c1=O)Nc1ccc2c(c1)/C(=C/c1cnc[nH]1)C(=O)N2` showed an inhibition [1] of 6%, an inhibition [2] of 2% and an inhibition [3] of -2%. For the same compound, the inhibition [4] was 19.6%, the inhibition [5] was 20% and the inhibition [6] was 6%. For the same compound, the inhibition [7] was “tde”, the inhibition [8] was 87% and the Activity [9] was 2.35%. For the same compound, the IC50 [10] was 3.36 nM, the Activity [11] was “Dose-dependent effect” and the inhibition [12] was 17%. The inhibition [13] was -3%, the Activity [14] was 0.64% and the inhibition [15] was 43%. For the same compound, the inhibition [16] was -8%, the inhibition [17] was -8% and the inhibition [18] was 4%. The inhibition [19] was 14%, the inhibition [20] was -2% and the inhibition [21] was 12%. It also gave an inhibition [22] of 3%.
